Test results taken from patent US20230146455A1, “TREATMENT OF INFLAMMATORY DISEASES WITH PEPTIDES AND PHARMACEUTICAL COMPOSITIONS” (Yuyu Pharma, Inc., priority 2020, published 2023).
“And” between values parts separate entries of the source, which are not always exact repeats. Equal values may be shown once. Where a SMILES comes first, the peptide text is derived from it. [ ]: non-standard residue; d: D form. Hyp = O=C(O)[C@@H]1C[C@@H](O)CN1

How the values were obtained:
IL-2 = test: Example 8 main study Luminex, LPS hPBMCs: IL-2; format: cell-based, human
Protocol: (§1) Human PBMCs were pretreated with YY-101, YDE-011, YDE-043 or reference compound; Xiidra® at various concentration (ranging from […] to 500 nM) for 2 h before stimulation. An equal volume of 0.5% DMSO was used as a vehicle control. Then, the cells were treated with LPS at 5 ug/ml, which was selected based on the pilot study. The supernatants from treated cells were harvested at 24 h and placed in a 96 well for Luminex cytokine & chemokine profiling using a Luminex 200 multiplex assay (Luminex; R&D system, USA).
(§2) The main study arm with triplicate wells per group in a 24-well plate: • 1. Blank • 2. PBMC: 0.5% DMSO • 3. PBMC+LPS (5 ug/ml) • 4. PBMC+YY-101 500 nM • 5. PBMC+YY-101 50 nM • 6. PBMC+YY-101 5 nM • 7. PBMC+YY-101 0.5 nM • 8. PBMC+LPS (5 ug/ml)+Xiidra® 500 nM • 9. PBMC+LPS (5 ug/ml)+Xiidra® 50 nM • 10. PBMC+LPS (5 ug/ml)+Xiidra® 5 nM • 11. PBMC+LPS (5 ug/ml)+Xiidra® 0.5 nM • 12. PBMC+LPS (5 ug/ml)+Xiidra® 0.05 nM • 13. PBMC+LPS (5 ug/ml)+Xiidra® 0.005 nM • 14. PBMC+LPS (5 ug/ml)+YY-101 500 nM • 15. PBMC+LPS (5 ug/ml)+YY-101 50 nM • 16. PBMC+LPS (5 ug/ml)+YY-101 5 nM • 17. PBMC+LPS (5 ug/ml)+YY-101 0.5 nM • 18. PBMC+LPS (5 ug/ml)+YY-101 0.05 nM • 19. PBMC+LPS (5 ug/ml)+YY-101 0.005 nM • 20. PBMC+LPS (5 ug/ml)+YDE-011 500 nM • 21. PBMC+LPS (5 ug/ml)+YDE-011 50 nM • 22. PBMC+LPS (5 ug/ml)+YDE-011 5 nM • 23. PBMC+LPS (5 ug/ml)+YDE-011 0.5 nM • 24. PBMC+LPS (5 ug/ml)+YDE-011 0.05 nM • 25. PBMC+LPS (5 ug/ml)+YDE-011 0.005 nM • 26. PBMC+LPS (5 ug/ml)+YDE-043 500 nM • 27. PBMC+LPS (5 ug/ml)+YDE-043 50 nM • 28. PBMC+LPS (5 ug/ml)+YDE-043 5 nM • 29. PBMC+LPS (5 ug/ml)+YDE-043 0.5 nM • 30. PBMC+LPS (5 ug/ml)+YDE-043 0.05 nM • 31. PBMC+LPS (5 ug/ml)+YDE-043 0.005 nM
(§3) Multiplex assay was used to measure 30 cytokines and chemokines. The 1:200 diluted cell supernatant and serial dilution of the standard were dispensed into a 96 well plate at 50 ul/well. Then, the pre-mixed cocktail of antibody-coated magnetic beads was dispensed at 50 ul/well and incubated at room temperature for 2 h in a horizontal orbital microplate shaker at 800±500 rpm. The beads were washed using a magnetic device to prevent loss. The biotin-antibody was dispensed in 50 ul of each well and incubated at room temperature for 1 h in a shaker at 800±500 rpm. After washing, streptavidin-PE was added at 50 ul/well and incubated at room temperature for 30 min in a shaker under the same conditions. Finally, after washing, wash buffer (100 ul/well) was added to the plate and incubated in a shaker for 2 min. The Luminex™ 200 setting were set according to the manufacturer's protocol. The data was calculated with a standard five-parameter logistic nonlinear regression analysis of the data (xPonent software 4.2, USA). Results were presented as concentration (ng/ml or pg/ml).

IL-10 = test: Example 8 main study Luminex, LPS hPBMCs: IL-10; format: cell-based, human; conditions: for IL-10 Concentration: individual replicates; for IL-10 Concentration (pg/ml), Mean: mean of replicates
Protocol: as §1, §2, §3

[1] = PBMC + LPS(5 ug/ml) + compound 0.005 nM, 24 h
[2] = PBMC + LPS(5 ug/ml) + compound 0.05 nM, 24 h
[3] = PBMC + LPS(5 ug/ml) + compound 0.5 nM, 24 h
[4] = PBMC + LPS(5 ug/ml) + compound 5 nM, 24 h
[5] = PBMC + LPS(5 ug/ml) + compound 50 nM, 24 h
[6] = PBMC + LPS(5 ug/ml) + compound 500 nM, 24 h
[7] = PBMC + compound 0.05 uM, no LPS
[8] = at as low as 5 μM, LPS 5 ug/mL 24 hrs
[9] = PBMC + LPS(5 ug/ml) + test article 0.005 nM
[10] = PBMC + LPS(5 ug/ml) + test article 0.05 nM
[11] = PBMC + LPS(5 ug/ml) + test article 0.5 nM
[12] = PBMC + LPS(5 ug/ml) + test article 5 nM
[13] = PBMC + LPS(5 ug/ml) + test article 50 nM
[14] = PBMC + LPS(5 ug/ml) + test article 500 nM

SMILES: CC(C)C[C@H](NC(=O)CNC(=O)[C@H](CC(=O)O)NC(=O)[C@H](CCC(N)=O)NC(=O)CNC(=O)[C@@H]1C[C@@H](O)CN1)C(=O)N[C@@H](C)C(=O)NCC(=O)N1CCC[C@H]1C(=O)N[C@@H](CCCCN)C(=O)O [YY-101] (H-[Hyp]GQDGLAGPK-OH; N-terminus and C-terminus assumed)
- IL-2 Concentration, individual wells (IL-2; [1]): 2746.7 pg/mL and 2707.7 pg/mL and 2551.7 pg/mL
- IL-2 MFI, individual wells (IL-2; [1]): 64.5 and 64.0 and 62.0
- IL-2 MFI, Mean (IL-2; PBMC + LPS(5 ug/ml) + compound 0.005 nM, 24 h, LPS alone Mean 80.5): 63.5
- IL-2 Concentration, Mean (IL-2; PBMC + LPS(5 ug/ml) + compound 0.005 nM, 24 h, LPS alone Mean 3988.7): 2668.7 pg/mL
- IL-2 Concentration, individual wells (IL-2; [2]): 2785.6 pg/mL and 3174.7 pg/mL and 3058.1 pg/mL
- IL-2 MFI, individual wells (IL-2; [2]): 65.0 and 70.0 and 68.5
- IL-2 MFI, Mean (IL-2; PBMC + LPS(5 ug/ml) + compound 0.05 nM, 24 h, LPS alone Mean 80.5): 67.8
- IL-2 Concentration, Mean (IL-2; PBMC + LPS(5 ug/ml) + compound 0.05 nM, 24 h, LPS alone Mean 3988.7): 3006.1 pg/mL
- IL-2 Concentration, individual wells (IL-2; [3]): 2863.5 pg/mL and 2785.6 pg/mL and 2824.6 pg/mL
- IL-2 MFI, individual wells (IL-2; [3]): 66.0 and 65.0 and 65.5
- IL-2 MFI, Mean (IL-2; PBMC + LPS(5 ug/ml) + compound 0.5 nM, 24 h, LPS alone Mean 80.5): 65.5
- IL-2 Concentration, Mean (IL-2; PBMC + LPS(5 ug/ml) + compound 0.5 nM, 24 h, LPS alone Mean 3988.7): 2824.6 pg/mL
- IL-2 Concentration, individual wells (IL-2; [4]): 2473.6 pg/mL and 2629.7 pg/mL and 2941.4 pg/mL
- IL-2 MFI, individual wells (IL-2; [4]): 61.0 and 63.0 and 67.0
- IL-2 MFI, Mean (IL-2; PBMC + LPS(5 ug/ml) + compound 5 nM, 24 h, LPS alone Mean 80.5): 63.7
- IL-2 Concentration, Mean (IL-2; PBMC + LPS(5 ug/ml) + compound 5 nM, 24 h, LPS alone Mean 3988.7): 2681.6 pg/mL
- IL-2 Concentration, individual wells (IL-2; [5]): 2473.6 pg/mL and 2707.7 pg/mL and 2863.5 pg/mL
- IL-2 MFI, individual wells (IL-2; [5]): 61.0 and 64.0 and 66.0
- IL-2 MFI, Mean (IL-2; PBMC + LPS(5 ug/ml) + compound 50 nM, 24 h, LPS alone Mean 80.5): 63.7
- IL-2 Concentration, Mean (IL-2; PBMC + LPS(5 ug/ml) + compound 50 nM, 24 h, LPS alone Mean 3988.7): 2681.6 pg/mL
- IL-2 Concentration, individual wells (IL-2; [6]): 2707.7 pg/mL and 2863.5 pg/mL and 2551.7 pg/mL
- IL-2 MFI, individual wells (IL-2; [6]): 64.0 and 66.0 and 62.0
- IL-2 MFI, Mean (IL-2; PBMC + LPS(5 ug/ml) + compound 500 nM, 24 h, LPS alone Mean 80.5): 64.0
- IL-2 Concentration, Mean (IL-2; PBMC + LPS(5 ug/ml) + compound 500 nM, 24 h, LPS alone Mean 3988.7): 2707.6 pg/mL
- IL-2 Concentration, individual wells (IL-2; PBMC + compound 0.5 nM, no LPS): 173.5 pg/mL and 337.0 pg/mL
- IL-2 MFI, individual wells (IL-2; PBMC + compound 0.5 nM, no LPS): 32.0 and 34.0
- IL-2 MFI, Mean (IL-2; PBMC + compound 0.5 nM, no LPS, 0.5% DMSO Mean 30.7): 33.0
- IL-2 Concentration, Mean (IL-2; PBMC + compound 0.5 nM, no LPS, 0.5% DMSO Mean 61.8): 255.2 pg/mL
- IL-2 Concentration, individual wells (IL-2; PBMC + compound 5 nM, no LPS): 173.5 pg/mL
- IL-2 MFI, individual wells (IL-2; PBMC + compound 5 nM, no LPS): 32.0
- IL-2 MFI, Mean (IL-2; PBMC + compound 5 nM, no LPS, 0.5% DMSO Mean 30.7): 32.0
- IL-2 Concentration, Mean (IL-2; PBMC + compound 5 nM, no LPS, 0.5% DMSO Mean 61.8): 173.5 pg/mL
- IL-2 Concentration, individual wells (IL-2; [7]): 659.4 pg/mL and 337.0 pg/mL
- IL-2 MFI, individual wells (IL-2; [7]): 38.0 and 34.0
- IL-2 MFI, Mean (IL-2; PBMC + compound 0.05 uM, no LPS, 0.5% DMSO Mean 30.7): 36.0
- IL-2 Concentration, Mean (IL-2; PBMC + compound 0.05 uM, no LPS, 0.5% DMSO Mean 61.8): 498.2 pg/mL
- IL-2 Concentration, individual wells (IL-2; PBMC + compound 50 nM, no LPS): 48.8 pg/mL and 173.5 pg/mL
- IL-2 MFI, individual wells (IL-2; PBMC + compound 50 nM, no LPS): 30.5 and 32.0
- IL-2 MFI, Mean (IL-2; PBMC + compound 50 nM, no LPS, 0.5% DMSO Mean 30.7): 31.3
- IL-2 Concentration, Mean (IL-2; PBMC + compound 50 nM, no LPS, 0.5% DMSO Mean 61.8): 111.2 pg/mL
- IL-2 Concentration, individual wells (IL-2; PBMC + compound 500 nM, no LPS): 132.3 pg/mL and 255.5 pg/mL
- IL-2 MFI, individual wells (IL-2; PBMC + compound 500 nM, no LPS): 31.5 and 33.0
- IL-2 MFI, Mean (IL-2; PBMC + compound 500 nM, no LPS, 0.5% DMSO Mean 30.7): 32.3
- IL-2 Concentration, Mean (IL-2; PBMC + compound 500 nM, no LPS, 0.5% DMSO Mean 61.8): 193.9 pg/mL
- LPS-induced IL-2 (in words) (IL-2; [8]): significantly reduced
- IL-10 Concentration (IL-10; [9]): 832.3 pg/mL and 677.1 pg/mL and 780.9 pg/mL
- IL-10 Concentration (pg/ml), Mean (IL-10; [9]): 763.4 pg/mL
- IL-10 Concentration (IL-10; [10]): 806.6 pg/mL and 1121.8 pg/mL and 883.3 pg/mL
- IL-10 Concentration (pg/ml), Mean (IL-10; [10]): 937.2 pg/mL
- IL-10 Concentration (IL-10; [11]): 870.5 pg/mL and 703.2 pg/mL and 716.2 pg/mL
- IL-10 Concentration (pg/ml), Mean (IL-10; [11]): 763.3 pg/mL
- IL-10 Concentration (IL-10; [12]): 857.8 pg/mL and 934.0 pg/mL and 1009.5 pg/mL
- IL-10 Concentration (pg/ml), Mean (IL-10; [12]): 933.8 pg/mL
- IL-10 Concentration (IL-10; [13]): 651.0 pg/mL and 845.0 pg/mL and 793.8 pg/mL
- IL-10 Concentration (pg/ml), Mean (IL-10; [13]): 763.3 pg/mL
- IL-10 Concentration (IL-10; [14]): 832.3 pg/mL and 883.3 pg/mL and 755.1 pg/mL
- IL-10 Concentration (pg/ml), Mean (IL-10; [14]): 823.5 pg/mL
- IL-10 Concentration (IL-10; PBMC + test article 0.5 nM, no LPS, dilution 200): <2.59 pg/mL
- IL-10 Concentration (IL-10; PBMC + test article 5 nM, no LPS, dilution 200): <2.59 pg/mL
- IL-10 Concentration (IL-10; PBMC + test article 0.05 uM, no LPS, dilution 200): <2.59 pg/mL
- IL-10 Concentration (IL-10; PBMC + test article 50 nM, no LPS, dilution 200): <2.59 pg/mL
- IL-10 Concentration (IL-10; PBMC + test article 500 nM, no LPS, dilution 200): <2.59 pg/mL
- LPS-induced IL-10 (in words) (IL-10; [8]): significantly reduced
